For one data set, the system named is RAW-mLPCAT2 cells. The data set can be described thus: cell viability assay (WST-8). It is filed as cell-based, mouse. The following applies: Mus musculus, 1 h pretreatment. On the procedure:
(§1) Cell viability was measured using a modified MTT [3-(4,5-dimethylthiazol-2-yl)-2,5-diphenyltetrazolium bromide] dye reduction assay using WST-8 [2-(2-methoxy-4-nitrophenyl)-3-(4-nitrophenyl)-5-(2,4-disulfophenyl)-2H-tetrazolium, monosodium salt; Dojindo Molecular Technologies, Inc., Kumamoto, Japan] according to the manufacturer’s instructions. […] or RAW-mLPCAT2 cells were seeded in 96-well plates (1 × 10^4 cells/well) for 8 h and then treated with a compound for 36 h. WST-8 was added for another 2 h and the 450 nm absorbance was measured using a microplate reader (Bio-Rad). Cell viability was expressed as a percentage of vehicle-treated control values. To observe the effects of the incubation time on cell viability, 0.4 × 10^4 RAW-mLPCAT2 cells were treated with compounds for 1 or 6 h before the WST-8 assay.
(§2) Step 8 screening: cell viability assay
(§3) Wild-type RAW264.7 cells and RAW264.7 cells transfected with mLPCAT2 or control plasmid were used. Cells were cultured for 36 h with 0, 0.06, 0.2, 0.6, 2, 6, and 20 µM of compounds in 96-well plates and assayed for viability with WST-8. […]
(§4) The data were normalized to each positive control (100% activation). Percentage inhibition or IC50 were determined in each screening step. To assess screening quality, the percentage coefficient of variance and the Z’ factor was calculated for each plate or each assay as described previously (2).
In general terms: Formazan colour is commonly taken as a measure of viable cells.

The nature of data set [1]: cell viability assay (WST-8). It counts as cell-based, mouse. The following applies: mouse, RAW-mLPCAT2 cells (RAW264.7 cells transfected with mLPCAT2), 36 h treatment, WST-8, data not shown, read-out: cytotoxicity IC50 (cell viability). On the procedure:
as §1, §2, §3, §4

The next data set has as its target T1, hLPCAT1 (Homo sapiens, UniProt Q8NF37).
T1 construct: expressed in transfected cells
T1 sequence (Q8NF37 1-534): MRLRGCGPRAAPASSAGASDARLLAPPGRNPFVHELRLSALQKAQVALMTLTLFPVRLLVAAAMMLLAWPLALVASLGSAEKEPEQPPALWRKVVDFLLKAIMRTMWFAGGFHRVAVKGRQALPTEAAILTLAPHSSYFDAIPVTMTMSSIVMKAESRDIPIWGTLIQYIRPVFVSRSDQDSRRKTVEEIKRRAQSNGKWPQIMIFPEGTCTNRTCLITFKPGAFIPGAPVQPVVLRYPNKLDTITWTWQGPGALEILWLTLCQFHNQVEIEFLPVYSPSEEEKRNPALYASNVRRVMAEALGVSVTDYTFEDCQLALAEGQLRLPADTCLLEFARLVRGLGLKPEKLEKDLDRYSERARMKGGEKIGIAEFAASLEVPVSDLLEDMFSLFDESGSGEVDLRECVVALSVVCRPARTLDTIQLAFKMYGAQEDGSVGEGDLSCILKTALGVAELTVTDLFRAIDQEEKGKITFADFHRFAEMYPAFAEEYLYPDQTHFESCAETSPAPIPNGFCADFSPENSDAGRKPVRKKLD
The data set is described as follows: lyso-PAFAT (acetyltransferase) activity assay, PAF product by LC-MS/MS. It is filed as biochemical. Particulars: for IC50: 0, 0.2, 0.6, 2, 6 and 20 μM of each compound in triplicate, LC-MS/MS, read-out: IC50, product PAF, enzyme hLPCAT1; for percentage inhibition, product PAF, hLPCAT1: 20 μM compound, microsomal fractions of nonstimulated CHO-S-PAFR cells, n = 3, mean ± SEM. On the procedure:
(§5) Microsomal protein fractions (0.5 μg) supplemented with the indicated compound concentrations were added to the reaction mixture containing 100 mM Tris-HCl (pH 7.4), 1 μM CaCl2, 0.015% Tween-20, and two substrates. For acetyltransferase activity, the substrates were 1 mM acetyl-CoA and 5 μM d4-lyso-PAF; for the acyltransferase activity of LPCAT1 or LPCAT2, the substrates were, respectively, palmitoyl-CoA and d31-16:0 LPC or arachidonoyl-CoA and d4-lyso-PAF (all 5 μM). Each lysophospholipid contained fatty acid at the sn-1 position. After incubation at 37°C for 5 min, the reactions were stopped by adding 300 μl methanol containing 17:0 LPC or 14:0/14:0 PC as an internal standard. Deuterium-labeled products were analyzed by LC-MS/MS (Waters, Milford, MA and Thermo Scientific, Waltham, MA). […]
(§6) Steps 2 to 5 screening: 96-well plate assay
(§7) Acetyltransferase and acyltransferase assays were developed in 96-well plates. The microsomal hLPCAT2, obtained from mcPAF-stimulated CHO-S-PAFR cells was used in steps 1, 2, and 5. The microsomal hLPCAT1 obtained from unstimulated CHO-S cells was used in steps 3 to 5. Each well of the 96-well plates contained 30 µl of 15 µg/ml protein, 600 nl of 2 mM compound, 30 µl buffer C, and two substrates (Fig. 1B and C).
(§8) Substrate concentrations were as follows: acetyl-CoA, 250 or 1000 µM acetyl-CoA; […]
(§9) arachidonoyl-CoA, 5 µM; palmitoyl-CoA, 5 µM; d4-lyso-PAF, 5 µM; and d31-LPC, 5 µM.
(§10) For step 5, compound concentrations were 0, 0.167, 0.67, 2, 6.7, and 20 µM. The deuterium-labeled products were measured by LC-MS/MS. Percentage inhibition (steps 2 to 4) or IC50 (step 5) was used as the hit criterion. […]
(§11) Step 7 screening: species-specific differences
(§12) To evaluate the effects on the activity of mouse or human LPCAT1 and LPCAT2, each microsomal fraction was obtained using CHO-S-PAFR cells with or without mcPAF (200 nM) stimulation for 5 min. Acetyltransferase and acyltransferase assays were performed with 20 µM of each compound. Percentage inhibition was calculated in each

For another data set, the target named is T2, hLPCAT2 (Homo sapiens, UniProt Q7L5N7).
T2 construct: expressed in transfected cells; host or cells: CHO-S-PAFR cells (microsomal fraction), with or without mcPAF stimulation
T2 sequence (Q7L5N7 1-544): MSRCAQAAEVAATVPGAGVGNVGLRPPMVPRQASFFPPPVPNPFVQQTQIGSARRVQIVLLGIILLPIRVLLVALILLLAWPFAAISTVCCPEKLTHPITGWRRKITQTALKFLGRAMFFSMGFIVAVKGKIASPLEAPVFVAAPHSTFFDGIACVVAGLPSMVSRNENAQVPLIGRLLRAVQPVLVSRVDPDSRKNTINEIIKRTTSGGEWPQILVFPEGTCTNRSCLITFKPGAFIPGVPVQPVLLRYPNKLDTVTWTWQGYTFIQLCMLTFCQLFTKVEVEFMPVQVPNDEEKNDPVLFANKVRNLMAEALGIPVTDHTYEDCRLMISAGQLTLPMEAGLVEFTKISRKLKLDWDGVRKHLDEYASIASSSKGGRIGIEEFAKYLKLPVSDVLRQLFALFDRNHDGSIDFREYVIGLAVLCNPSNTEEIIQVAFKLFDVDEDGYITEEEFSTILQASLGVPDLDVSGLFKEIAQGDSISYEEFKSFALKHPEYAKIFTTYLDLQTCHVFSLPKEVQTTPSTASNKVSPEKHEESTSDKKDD
The data set can be described thus: acyltransferase activity assay, 16:0/20:4 alkyl-PC product by LC-MS/MS. It counts as biochemical. The following applies: for IC50: 0, 0.2, 0.6, 2, 6 and 20 μM of each compound in triplicate, LC-MS/MS, read-out: IC50, product Alkyl-PC (16:0/20:4 alkyl-PC), enzyme hLPCAT2; for percentage inhibition, product 16:0/20:4 Alkyl-PC, hLPCAT2: 20 μM compound, microsomal fractions of nonstimulated CHO-S-PAFR cells, n = 3, mean ± SEM. The method, then:
as §5, §6, §7, §8, §9, §10, §11, §12

Structures are written as SMILES.

For the molecule `CC(C)OC(=O)c1ccc(N2C(=O)C(Cl)=C(Cl)C2=O)cc1` [TSI-01, propan-2-yl 4-(3,4-dichloro-2,5-dioxopyrrol-1-yl)benzoate], the IC50 in the data set with RAW-mLPCAT2 cells is over 60 µM; at hLPCAT1 it was 3.02 µM; at hLPCAT2, 1.27 µM. Moreover, in data set [1], the IC50 at 36 h was over 20 µM. For the same molecule, on hLPCAT1, the “percentage inhibition, product PAF, hLPCAT1” value was determined as 75.9 ± 5.2 percentage. Further, at hLPCAT2, the “percentage inhibition, product 16:0/20:4 Alkyl-PC, hLPCAT2” value (shortened to “percentage inhibition … hLPCAT2”) worked out at 95.2 ± 1.3 percentage.

`O=C1C(Cl)=C(N2CCOCC2)C(=O)N1c1ccc(Oc2ccccc2)cc1` [TSI-02, 3-chloro-4-morpholin-4-yl-1-(4-phenoxyphenyl)pyrrole-2,5-dione]: the IC50 came to 8 µM on hLPCAT1 and 1.16 µM at hLPCAT2.

With `CC(C)OC(=O)c1ccc(N2C(=O)C(Cl)=C(Nc3ccccc3O)C2=O)cc1` [TSI-07], the IC50 with RAW-mLPCAT2 cells is over 60 µM. For the same molecule, the IC50 at 36 h in data set [1] is over 20 µM. On hLPCAT1, the IC50 was over 20 µM and the “percentage inhibition, product PAF, hLPCAT1” value is given as 11.9 ± 13.1 percentage. Moreover, at hLPCAT2, the IC50 is 13.3 µM and the “percentage inhibition … hLPCAT2” value was determined as 83.1 ± 4.3 percentage.

Turning to `CCCOC(=O)c1ccc(N2C(=O)C(Cl)=C(Cl)C2=O)cc1` [TSI-10], the IC50 with RAW-mLPCAT2 cells was over 60 µM; at hLPCAT1, 2.42 µM; on hLPCAT2, 0.3 µM. In data set [1], the IC50 at 36 h is over 20 µM. Moreover, the “percentage inhibition, product PAF, hLPCAT1” value at hLPCAT1 stood at 76.1 ± 4.4 percentage. On hLPCAT2, the “percentage inhibition … hLPCAT2” value turned out to be 85.4 ± 3.0 percentage.

For the molecule `CCCCOC(=O)c1ccc(N2C(=O)C(Cl)=C(Cl)C2=O)cc1` [TSI-11, butyl 4-(3,4-dichloro-2,5-dioxopyrrol-1-yl)benzoate], in the data set on RAW-mLPCAT2 cells, the IC50 was over 60 µM. Moreover, the IC50 at 36 h in data set [1] was over 20 µM. Also, at hLPCAT1, the IC50 is 1.01 µM and the “percentage inhibition, product PAF, hLPCAT1” value is reported as 78.6 ± 2.8 percentage. At hLPCAT2, the IC50 amounted to 0.33 µM and the “percentage inhibition … hLPCAT2” value came out at 80.4 ± 2.7 percentage.

For the origin of these results see paper PMC4076079, “Selective inhibitors of a PAF biosynthetic enzyme lysophosphatidylcholine acyltransferase 2” (Journal of Lipid Research, 2014).
